Measurements from ChEMBL document CHEMBL3868621, “A novel adamantane thiadiazole derivative induces mitochondria-mediated apoptosis in lung carcinoma cell line” (Bioorg Med Chem, 2017).
pIC50: −log10 of the molar value. Calls of active or inactive are those of the source. No cut-off for these calls is given here.

What was measured:
[1] = Cytotoxicity against HFB4 cells assessed as decrease in cell viability after 24 hrs by MTT assay; assay type: toxicity, cell-based; settings: human
[2] = Cytotoxicity against human HCT116 cells assessed as decrease in cell viability after 24 hrs by MTT assay; assay type: functional, cell-based; settings: HCT-116, 24 h
[3] = Cytotoxicity against human A549 cells assessed as decrease in cell viability after 24 hrs by MTT assay; assay type: functional, cell-based; settings: A549, 24 h
[4] = Cytotoxicity against human PC3 cells assessed as decrease in cell viability after 24 hrs by MTT assay; assay type: functional, cell-based; settings: PC-3, 24 h
A549 [5] = test: Induction of apoptosis in human A549 cells assessed as early apoptotic cells at 0.17 mM after 48 hrs by annexin V/propidium iodide double staining based flow cytometry (reference value: 1.27%); assay type: functional
A549 [6] = test: Induction of apoptosis in human A549 cells after 24 to 48 hrs by annexin V/propidium iodide double staining based flow cytometry; assay type: functional, cell-based
A549 [7] = test: Induction of apoptosis in human A549 cells assessed as viable cells at 0.17 mM after 48 hrs by annexin V/propidium iodide double staining based flow cytometry (reference value: 98.6%); assay type: functional; settings: A549, 48 h, read-out: Activity
A549 [8] = test: Induction of apoptosis in human A549 cells assessed as viable cells at 0.087 mM after 24 hrs by annexin V/propidium iodide double staining based flow cytometry (reference value: 98.85%); assay type: functional; settings: A549, 24 h, read-out: Activity
A549 [9] = test: Induction of morphological changes in human A549 cells assessed as change in mitochondrial number at 0.17 mM after 72 hrs by uranyl acetate/lead citrate staining based transmission electron microscopic imaging analysis; assay type: functional, cell-based
A549 [10] = test: Induction of morphological changes in human A549 cells assessed as formation of membrane blebs at 0.17 mM after 72 hrs by uranyl acetate/lead citrate staining based transmission electron microscopic imaging analysis; assay type: functional, cell-based
A549 [11] = test: Induction of apoptosis in human A549 cells assessed as early apoptotic cells at 0.087 mM after 24 hrs by annexin V/propidium iodide double staining based flow cytometry (reference value: 0.91%); assay type: functional
A549 [12] = test: Induction of morphological changes in human A549 cells assessed as cell shrinkage at 0.17 mM after 72 hrs by uranyl acetate/lead citrate staining based transmission electron microscopic imaging analysis; assay type: functional
A549 [13] = test: Induction of morphological changes in human A549 cells assessed as large uplifted structures on cell surface by measuring particle width at 0.087 mM after 24 hrs by atomic force microscopic imaging analysis (reference value: 0.147 micrometer); assay type: functional
A549 [14] = test: Induction of morphological changes in human A549 cells assessed as nuclear chromatin condensation and margination at 0.17 mM after 72 hrs by uranyl acetate/lead citrate staining based transmission electron microscopic imaging analysis; assay type: functional, cell-based
[15] = Cell cycle arrest in human A549 cells assessed as accumulation at G0/G1 phase at 0.087 mM after 24 hrs by propidium iodide staining based flow cytometry (reference value: 33.96%); assay type: functional
A549 [16] = test: Effect on Bcl2 expression in human A549 cells assessed as ratio of Bcl-2 to beta-actin mRNA level at 0.17 mM by qRT-PCR analysis (reference value: 15.0312); assay type: functional
A549 [17] = test: Induction of morphological changes in human A549 cells assessed as large uplifted structures on cell surface by measuring particle length at 0.087 mM after 24 hrs by atomic force microscopic imaging analysis (reference value: 0.161 micrometer); assay type: functional
A549 [18] = test: Induction of apoptosis in human A549 cells assessed as late apoptotic cells at 0.087 mM after 24 hrs by annexin V/propidium iodide double staining based flow cytometry (reference value: 0.21%); assay type: functional
A549 [19] = test: Induction of morphological changes in human A549 cells assessed as reduction in nucleus volume at 0.17 mM after 72 hrs by uranyl acetate/lead citrate staining based transmission electron microscopic imaging analysis; assay type: functional, cell-based
A549 [20] = test: Induction of apoptosis in human A549 cells assessed as necrotic cells at 0.17 mM after 48 hrs by annexin V/propidium iodide double staining based flow cytometry (reference value: 0%); assay type: functional
A549 [21] = test: Induction of apoptosis in human A549 cells assessed as necrotic cells at 0.087 mM after 24 hrs by annexin V/propidium iodide double staining based flow cytometry (reference value: 0.02%); assay type: functional
A549 [22] = test: Induction of morphological changes in human A549 cells assessed as change in mitochondrial morphology at 0.17 mM after 72 hrs by uranyl acetate/lead citrate staining based transmission electron microscopic imaging analysis; assay type: functional, cell-based
[23] = Cell cycle arrest in human A549 cells assessed as accumulation at S phase at 0.087 mM after 24 hrs by propidium iodide staining based flow cytometry (reference value: 34.42%); assay type: functional
[24] = Cell cycle arrest in human A549 cells assessed as accumulation at G2/M phase at 0.087 mM after 24 hrs by propidium iodide staining based flow cytometry (reference value: 26.63%); assay type: functional
A549 [25] = test: Effect on p53 expression in human A549 cells assessed as ratio of p53 to beta-actin mRNA level at 0.17 mM by qRT-PCR analysis (reference value: 10.87); assay type: functional
A549 [26] = test: Induction of morphological changes in human A549 cells assessed as small membrane protrusions on cell surface at 0.087 mM after 24 hrs by atomic force microscopic imaging analysis; assay type: functional, cell-based
A549 [27] = test: Induction of apoptosis in human A549 cells assessed as late apoptotic cells at 0.17 mM after 48 hrs by annexin V/propidium iodide double staining based flow cytometry (reference value: 0.08%); assay type: functional
A549 [28] = test: Induction of morphological changes in human A549 cells assessed as cell surface damage by measuring average roughness value at 0.087 mM after 24 hrs by atomic force microscopic imaging analysis (reference value: 1.11 micrometer); assay type: functional
A549 [29] = test: Effect on caspase-3 expression in human A549 cells assessed as ratio of caspase-3 to beta-actin mRNA level at 0.17 mM by qRT-PCR analysis (reference value: 6.398); assay type: functional
A549 [30] = test: Effect on Bax expression in human A549 cells assessed as ratio of Bax to beta-actin mRNA level at 0.17 mM by qRT-PCR analysis (reference value: 9.0641); assay type: functional
A549 [31] = test: Induction of apoptosis in human A549 cells assessed as increase in caspase-3 activity at 0.17 mM using Ac-DEVD-pNA as substrate after 48 hrs by colorimetric assay (reference value: 0.005); assay type: functional
A549 [32] = test: Induction of morphological changes in human A549 cells assessed as large uplifted structures on cell surface by measuring average particle height at 0.087 mM after 24 hrs by atomic force microscopic imaging analysis (reference value: 0.144 micrometer); assay type: functional
A549 [33] = test: Induction of morphological changes in human A549 cells assessed as increased cellular granularity at 0.17 mM after 72 hrs by uranyl acetate/lead citrate staining based transmission electron microscopic imaging analysis; assay type: functional, cell-based
A549 [34] = test: Induction of morphological changes in human A549 cells assessed as formation of apoptotic bodies at 0.17 mM after 72 hrs by uranyl acetate/lead citrate staining based transmission electron microscopic imaging analysis; assay type: functional, cell-based
A549 [35] = test: Induction of apoptosis in human A549 cells at 0.087 to 0.17 mM by annexin V/propidium iodide double staining based flow cytometry; assay type: functional, cell-based; settings: TDE = time-dependent effect
A549 [36] = test: Induction of morphological changes in human A549 cells assessed as larger uplifted particles on cell surface at 0.087 mM after 24 hrs by atomic force microscopic imaging analysis; assay type: functional, cell-based

O=c1[nH]cc(F)c(=O)[nH]1 [FLUOROURACIL]
IC50 at 24 h [1]: > 5000 µM
pIC50 [2]: 2.70
pIC50 [3]: 2.54
pIC50 [4]: 2.92

O=C(Nc1ccccc1)c1nn(-c2ccccc2)/c(=N/NC(=O)C23CC4CC(CC(C4)C2)C3)s1
Activity (A549 [5]): 16.2%
Activity (A549 [6]): Dose-dependent effect
viability at 170 µM (A549 [7]): 83.6%
viability at 87 µM (A549 [8]): 89%
Activity (A549 [9]): Active
Activity (A549 [10]): Active
Activity (A549 [11]): 10.36%
IC50 at 24 h [1]: 218 µM
Activity (A549 [12]): Active
Activity (A549 [13]): 0.134 um
Activity (A549 [14]): Active
Activity [15]: 29.2%
Ratio (A549 [16]): 8.323
pIC50 [2]: 3.77
pIC50 [3]: 4.06
Activity (A549 [17]): 0.142 um
Activity (A549 [18]): 0.61%
Activity (A549 [19]): Active
Activity (A549 [20]): 0%
Activity (A549 [21]): 0%
Activity (A549 [22]): Active
Activity [23]: 68.9%
Activity [24]: 1.97%
Ratio (A549 [25]): 13.73
Activity (A549 [26]): Active
pIC50 [4]: 3.79
Activity (A549 [27]): 0.18%
Activity (A549 [28]): 1.29 um
Ratio (A549 [29]): 12.327
Ratio (A549 [30]): 18.781
OD (A549 [31]): 0.021
Activity (A549 [32]): 0.161 um
Activity (A549 [33]): Active
Activity (A549 [34]): Active
Activity (A549 [35]): Tde
Activity (A549 [36]): Active
